Measurements from patent publication US20180022780A1, “STABILIZATION ADRENOMEDULLIN DERIVATIVES AND USE THEREOF” (priority 2014, published 2018).
Bridge positions count the residues as written; N and C are the ends. Square brackets hold non-standard residues; d marks the D form. Peptide text beside a SMILES is read from it. Orn = NCCC[C@H](N)C(=O)O; Dab = NCC[C@H](N)C(=O)O; Dap = NC[C@H](N)C(=O)O

Biological target: T1, CLR fused to EYFP and RAMP2 fused to ECFP (Homo sapiens, UniProt O60895+Q16602)
T1 construct: EYFP; ECFP; expressed in transfected cells; host or cells: HEK-293 cells, transient co-transfection
T1 sequence (Q16602 23-461): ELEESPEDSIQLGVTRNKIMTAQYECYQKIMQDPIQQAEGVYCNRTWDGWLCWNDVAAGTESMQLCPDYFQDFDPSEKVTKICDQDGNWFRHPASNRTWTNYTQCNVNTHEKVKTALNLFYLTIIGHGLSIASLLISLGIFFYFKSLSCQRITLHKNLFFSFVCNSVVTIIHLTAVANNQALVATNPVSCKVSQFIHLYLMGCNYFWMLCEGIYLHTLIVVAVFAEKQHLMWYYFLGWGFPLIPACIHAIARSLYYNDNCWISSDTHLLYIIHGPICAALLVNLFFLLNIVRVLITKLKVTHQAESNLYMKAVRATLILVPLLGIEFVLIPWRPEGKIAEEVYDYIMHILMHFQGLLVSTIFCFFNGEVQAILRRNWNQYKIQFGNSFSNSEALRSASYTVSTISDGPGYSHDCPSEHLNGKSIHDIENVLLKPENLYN
T1 sequence (O60895 43-175): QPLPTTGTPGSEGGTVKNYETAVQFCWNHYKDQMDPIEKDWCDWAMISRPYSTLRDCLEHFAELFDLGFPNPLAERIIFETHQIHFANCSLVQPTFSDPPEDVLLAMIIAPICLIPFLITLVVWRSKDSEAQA
Assay: cAMP assay (CRE luciferase reporter, HEK-293 cells transiently co-transfected with CLR and RAMP2)
Format: cell-based
Conditions: Table 2, cAMP assay; HEK-293, CLR/RAMP2, CRE luciferase, 3 h stimulation, normalized to [G^14]ADM(14-52)
Method: HEK-293 cells (human embryonic kidney cells) were cultured in Ham's F-12/DMEM (1/1; v/v) containing 15% FCS under humidified atmosphere at 37° C. and 5% CO2 in 75 cm^2 cell culture flasks.
Cells were cultured in 75 cm^2 flasks to 70-80% confluency. 45 μl Metafectene® Pro was diluted in 900 μl Ham's F-12/DMEM (1/1; v/v) and incubated for 20 min at room temperature. 9000 ng plasmid containing DNA of CLR fused to EYFP and 3000 ng plasmid containing DNA of RAMP2 fused to ECFP were dissolved in 900 μl Ham's F-12/DMEM (1/1; v/v). The plasmid solution was mixed with the Metafectene® Pro solution and incubated for 25 min at room temperature. Medium was removed from the cells and replaced by 6 ml Ham's F-12/DMEM (1/1; v/v) containing 15% FCS. After addition of transfection solution the cells were incubated for 3 h under humidified atmosphere at 37° C. and 5% CO2.
For the second transfection 45 μl Metafectene® Pro was diluted in 900 μl Ham's F-12/DMEM (1/1; v/v) and incubated for 20 min at room temperature. 12000 ng of pGL4.29[luc2P/CRE/Hygro] plasmid containing DNA for the luciferase reporter gene luc2P (with CRE promotor region) were dissolved in 900 μl Ham's F-12/DMEM (1/1; v/v). The plasmid solution was mixed with the Metafectene® Pro solution and incubated for 25 min at room temperature. Medium was removed from the cells and replaced by 6 ml Ham's F-12/DMEM (1/1; v/v) containing 15% FCS. After addition of transfection solution the cells were incubated under humidified atmosphere at 37° C. and 5% CO2 over night.
For the coating of 96-well-plates 50 μl of a Poly-D-Lysine solution (1 ml stock solution of Poly-D-Lysin-hydrobromid/10 ml DPBS) were pipetted in each well and incubated for 40 min. After removal of the Poly-D-Lysine each well was washed with 50 μl DPBS. Transiently transfected cells were detached from the cell culture flask by removal of the medium, twofold washing with 5 m1 DPBS and resuspending in 13 ml Ham's F-12/DMEM (1/1; v/v) containing 15% FCS. 90000 to 120000 cells in 150 μl Ham's F-12/DMEM (1/1; v/v) containing 15% FCS were seeded per well and the plates were incubated under humidified atmosphere at 37° C. and 5% CO2 over night.
For each ligand a serial dilution giving eight different concentrations was prepared using Ham's F-12/DMEM (1/1; v/v). Before stimulation the medium on the cells was replaced by 100 μl Ham's F-12/DMEM (1/1; v/v) and the plates were incubated for 1 h under humidified atmosphere at 37° C. and 5% CO2. For stimulation the medium was removed again and the cells were incubated for 3 h in 80 μl of ligand-solution under humidified atmosphere at 37° C. and 5% CO2. In addition 80 μl of a 5 μM forskolin solution (in Ham's F-12/DMEM (1/1; v/v)) was used as a positive control and 80 μl of Ham's F-12/DMEM (1/1; v/v) as a negative control. Each concentration and the controls were tested as triplicates.
After 3 h of stimulation, the solutions were removed and the cells were washed with 50 μl of Ham's F-12/DMEM (1/1; v/v) per well. After 10 min incubation in 30 μl of Ham's F-12/DMEM (1/1; v/v) at room temperature, 30 μl of luciferase-solution (ONE-Glo™ Luciferase Assay System) was added and the luminescence was directly measured using an Infinite M200 (Tecan).
Data analysis of the luminescence measurement was carried out with GraphPad Prism 5. Therefore the measured luminescence values of each plate were first corrected on the base of the respective average of forskolin stimulation. Afterwards they were normalized to [G^14]ADM(14-52) which was used as standard peptide in every assay. After correction and normalization data was analysed using non-linear regression giving dose-response curves for each tested ligand.

Row | EC50 | Structure (SMILES)
1 | 0.067 µM | CC[C@H](C)[C@H](NC(=O)[C@H](CCC(N)=O)NC(=O)[C@H](Cc1c[nH]cn1)NC(=O)[C@H](C)NC(=O)[C@H](CC(C)C)NC(=O)[C@H](CCCCN)NC(=O)[C@H](CCC(N)=O)NC(=O)[C@@H](NC(=O)[C@@H](NC(=O)[C@@H]1CC(=O)NC[C@H](NC(=O)CNC(=O)CN)C(=O)N[C@@H](CCCNC(=N)N)C(=O)N[C@@H](Cc2ccccc2)C(=O)NCC(=O)N[C@@H]([C@@H](C)O)C(=O)N1)[C@@H](C)O)C(C)C)C(=O)N[C@@H](Cc1ccc(O)cc1)C(=O)N[C@@H](CCC(N)=O)C(=O)N[C@@H](Cc1ccccc1)C(=O)N[C@H](C(=O)N[C@@H](CC(=O)O)C(=O)N[C@@H](CCCCN)C(=O)N[C@@H](CC(=O)O)C(=O)N[C@@H](CCCCN)C(=O)N[C@@H](CC(=O)O)C(=O)N[C@@H](CC(N)=O)C(=O)N[C@H](C(=O)N[C@@H](C)C(=O)N1CCC[C@H]1C(=O)N[C@@H](CCCNC(=N)N)C(=O)N[C@@H](CO)C(=O)N[C@@H](CCCCN)C(=O)N[C@H](C(=O)N[C@@H](CO)C(=O)N1CCC[C@H]1C(=O)N[C@@H](CCC(N)=O)C(=O)NCC(=O)N[C@@H](Cc1ccc(O)cc1)C(N)=O)[C@@H](C)CC)C(C)C)[C@@H](C)O [Example 3, ((2S,5S,11S,14S,19S)-19-(2-(2-aminoacetamido)acetamido)-5-benzyl-2-(3-guanidinopropyl)-11-((R)-1-hydroxyethyl)-3,6,9,12,16,20-hexaoxo-1,4,7,10,13,17-hexaazacycloicosane-14-carbonyl)-L-threonyl-ADM(22-52)] (H-GG[Dap]RFGTDTVQKLAHQIYQFTDKDKDNVAPRSKISPQGY-NH2; lactam 3-8)
2 | 0.0091 µM | CC[C@H](C)[C@H](NC(=O)[C@H](CCC(N)=O)NC(=O)[C@H](Cc1c[nH]cn1)NC(=O)[C@H](C)NC(=O)[C@H](CC(C)C)NC(=O)[C@H](CCCCN)NC(=O)[C@H](CCC(N)=O)NC(=O)[C@@H](NC(=O)[C@@H](NC(=O)[C@@H]1CCC(=O)NCCC[C@H](NC(=O)CNC(=O)CN)C(=O)N[C@@H](CCCNC(=N)N)C(=O)N[C@@H](Cc2ccccc2)C(=O)NCC(=O)N[C@@H]([C@@H](C)O)C(=O)N1)[C@@H](C)O)C(C)C)C(=O)N[C@@H](Cc1ccc(O)cc1)C(=O)N[C@@H](CCC(N)=O)C(=O)N[C@@H](Cc1ccccc1)C(=O)N[C@H](C(=O)N[C@@H](CC(=O)O)C(=O)N[C@@H](CCCCN)C(=O)N[C@@H](CC(=O)O)C(=O)N[C@@H](CCCCN)C(=O)N[C@@H](CC(=O)O)C(=O)N[C@@H](CC(N)=O)C(=O)N[C@H](C(=O)N[C@@H](C)C(=O)N1CCC[C@H]1C(=O)N[C@@H](CCCNC(=N)N)C(=O)N[C@@H](CO)C(=O)N[C@@H](CCCCN)C(=O)N[C@H](C(=O)N[C@@H](CO)C(=O)N1CCC[C@H]1C(=O)N[C@@H](CCC(N)=O)C(=O)NCC(=O)N[C@@H](Cc1ccc(O)cc1)C(N)=O)[C@@H](C)CC)C(C)C)[C@@H](C)O [Example 20, ((2S,5S,11S,14S,22S)-22-(2-(2-aminoacetamido)acetamido)-5-benzyl-2-(3-guanidinopropyl)-11-((R)-1-hydroxyethyl)-3,6,9,12,17,23-hexaoxo-1,4,7,10,13,18-hexaazacyclotricosane-14-carbonyl)-L-threonyl-ADM(22-52)] (H-GG[Orn]RFGTETVQKLAHQIYQFTDKDKDNVAPRSKISPQGY-NH2; lactam 3-8)
3 | 0.0029 µM | CC[C@H](C)[C@H](NC(=O)[C@H](CCC(N)=O)NC(=O)[C@H](Cc1c[nH]cn1)NC(=O)[C@H](C)NC(=O)[C@H](CC(C)C)NC(=O)[C@H](CCCCN)NC(=O)[C@H](CCC(N)=O)NC(=O)[C@@H](NC(=O)[C@@H](NC(=O)[C@@H]1CCC(=O)NC[C@H](NC(=O)CNC(=O)CN)C(=O)N[C@@H](CCCNC(=N)N)C(=O)N[C@@H](Cc2ccccc2)C(=O)NCC(=O)N[C@@H]([C@@H](C)O)C(=O)N1)[C@@H](C)O)C(C)C)C(=O)N[C@@H](Cc1ccc(O)cc1)C(=O)N[C@@H](CCC(N)=O)C(=O)N[C@@H](Cc1ccccc1)C(=O)N[C@H](C(=O)N[C@@H](CC(=O)O)C(=O)N[C@@H](CCCCN)C(=O)N[C@@H](CC(=O)O)C(=O)N[C@@H](CCCCN)C(=O)N[C@@H](CC(=O)O)C(=O)N[C@@H](CC(N)=O)C(=O)N[C@H](C(=O)N[C@@H](C)C(=O)N1CCC[C@H]1C(=O)N[C@@H](CCCNC(=N)N)C(=O)N[C@@H](CO)C(=O)N[C@@H](CCCCN)C(=O)N[C@H](C(=O)N[C@@H](CO)C(=O)N1CCC[C@H]1C(=O)N[C@@H](CCC(N)=O)C(=O)NCC(=O)N[C@@H](Cc1ccc(O)cc1)C(N)=O)[C@@H](C)CC)C(C)C)[C@@H](C)O [Example 7, ((3S,9S,12S,15S,21S)-15-(2-(2-aminoacetamido)acetamido)-9-benzyl-12-(3-guanidinopropyl)-3-((R)-1-hydroxyethyl)-2,5,8,11,14,18-hexaoxo-1,4,7,10,13,17-hexaazacyclohenicosane-21-carbonyl)-L-threonyl-ADM(22-52)] (H-GG[Dap]RFGTETVQKLAHQIYQFTDKDKDNVAPRSKISPQGY-NH2; lactam 3-8)
4 | 0.021 µM | CC[C@H](C)[C@H](NC(=O)[C@H](CCC(N)=O)NC(=O)[C@H](Cc1c[nH]cn1)NC(=O)[C@H](C)NC(=O)[C@H](CC(C)C)NC(=O)[C@H](CCCCN)NC(=O)[C@H](CCC(N)=O)NC(=O)[C@@H](NC(=O)[C@@H](NC(=O)[C@@H]1CCNC(=O)C[C@H](NC(=O)CNC(=O)CN)C(=O)N[C@@H](CCCNC(=N)N)C(=O)N[C@@H](Cc2ccccc2)C(=O)NCC(=O)N[C@@H]([C@@H](C)O)C(=O)N1)[C@@H](C)O)C(C)C)C(=O)N[C@@H](Cc1ccc(O)cc1)C(=O)N[C@@H](CCC(N)=O)C(=O)N[C@@H](Cc1ccccc1)C(=O)N[C@H](C(=O)N[C@@H](CC(=O)O)C(=O)N[C@@H](CCCCN)C(=O)N[C@@H](CC(=O)O)C(=O)N[C@@H](CCCCN)C(=O)N[C@@H](CC(=O)O)C(=O)N[C@@H](CC(N)=O)C(=O)N[C@H](C(=O)N[C@@H](C)C(=O)N1CCC[C@H]1C(=O)N[C@@H](CCCNC(=N)N)C(=O)N[C@@H](CO)C(=O)N[C@@H](CCCCN)C(=O)N[C@H](C(=O)N[C@@H](CO)C(=O)N1CCC[C@H]1C(=O)N[C@@H](CCC(N)=O)C(=O)NCC(=O)N[C@@H](Cc1ccc(O)cc1)C(N)=O)[C@@H](C)CC)C(C)C)[C@@H](C)O [Example 4, ((2S,5S,11S,14S,20S)-20-(2-(2-aminoacetamido)acetamido)-5-benzyl-2-(3-guanidinopropyl)-11-((R)-1-hydroxyethyl)-3,6,9,12,18,21-hexaoxo-1,4,7,10,13,17-hexaazacyclohenicosane-14-carbonyl)-L-threonyl-ADM(22-52)] (H-GGDRFGT[Dab]TVQKLAHQIYQFTDKDKDNVAPRSKISPQGY-NH2; lactam 3-8)
